# Source: PubChem BioAssay AID248 (DTP/NCI, 2004)
# Where “and” joins values, the source holds several entries; their conditions need not be identical. Equal entries are not always repeated. Toxic doses and inconclusive results are not listed.
# System: L1210 leukemia ip in BDF1 mice, survival T/C
# Assay: NCI In Vivo Anticancer Drug Screen. Data for tumor model L1210 Leukemia (intraperitoneal) in B6D2F1 (BDF1) mice
# Conditions: endpoint: mean survival time, higher = longer survival
# How it was run: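 Tumor was transplanted into mice, which were then dosed with test compound or vehicle alone. Survival was recorded for each group, and the treated figure was expressed relative to the control figure.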
# [1] = dose: 100.0 mg/kg/injection, schedule: Q04DX002 (ip), vehicle: Klucel (hydroxypropylcellulose) (HPC)
# [2] = dose: 200.0 mg/kg/injection, schedule: Q04DX002 (ip), vehicle: Klucel (hydroxypropylcellulose) (HPC)
# [3] = dose: 400.0 mg/kg/injection, schedule: Q04DX002 (ip), vehicle: Klucel (hydroxypropylcellulose) (HPC)
# [4] = dose: 100.0 mg/kg/injection, schedule: Q01DX009 (ip), vehicle: Klucel (hydroxypropylcellulose) (HPC)
# [5] = dose: 100.0 mg/kg/injection, schedule: Q04DX003 (ip), vehicle: Klucel (hydroxypropylcellulose) (HPC)
# [6] = dose: 200.0 mg/kg/injection, schedule: Q01DX009 (ip), vehicle: Klucel (hydroxypropylcellulose) (HPC)
# [7] = dose: 200.0 mg/kg/injection, schedule: Q04DX003 (ip), vehicle: Klucel (hydroxypropylcellulose) (HPC)
# [8] = dose: 400.0 mg/kg/injection, schedule: Q01DX009 (ip), vehicle: Klucel (hydroxypropylcellulose) (HPC)
# [9] = dose: 400.0 mg/kg/injection, schedule: Q04DX003 (ip), vehicle: Klucel (hydroxypropylcellulose) (HPC)
# [10] = dose: 50.0 mg/kg/injection, schedule: Q01DX001 (ip), vehicle: carboxymethylcellulose (CMC)
# [11] = dose: 100.0 mg/kg/injection, schedule: Q01DX001 (ip), vehicle: carboxymethylcellulose (CMC)
# [12] = dose: 200.0 mg/kg/injection, schedule: Q01DX001 (ip), vehicle: carboxymethylcellulose (CMC)
# [13] = dose: 400.0 mg/kg/injection, schedule: Q01DX001 (ip), vehicle: carboxymethylcellulose (CMC)
# [14] = dose: 100.0 mg/kg/injection, schedule: Q01DX009 (ip), vehicle: saline
# [15] = dose: 200.0 mg/kg/injection, schedule: Q01DX009 (ip), vehicle: saline
# [16] = dose: 100.0 mg/kg/injection, schedule: Q01DX001 (ip), vehicle: saline with Tween-80
# [17] = dose: 200.0 mg/kg/injection, schedule: Q01DX001 (ip), vehicle: saline with Tween-80
# [18] = dose: 400.0 mg/kg/injection, schedule: Q01DX001 (ip), vehicle: saline with Tween-80
# [19] = dose: 100.0 mg/kg/injection, schedule: Q01DX001 (ip), vehicle: saline
# [20] = dose: 200.0 mg/kg/injection, schedule: Q01DX001 (ip), vehicle: saline
# [21] = dose: 400.0 mg/kg/injection, schedule: Q01DX001 (ip), vehicle: saline
# [22] = dose: 100.0 mg/kg/injection, schedule: Q04DX003 (ip), vehicle: saline with Tween-80
# [23] = dose: 200.0 mg/kg/injection, schedule: Q04DX003 (ip), vehicle: saline with Tween-80
# [24] = dose: 400.0 mg/kg/injection, schedule: Q04DX003 (ip), vehicle: saline with Tween-80
# [25] = dose: 100.0 mg/kg/injection, schedule: Q04DX002 (ip), vehicle: saline with Tween-80
# [26] = dose: 200.0 mg/kg/injection, schedule: Q04DX002 (ip), vehicle: saline with Tween-80
# [27] = dose: 400.0 mg/kg/injection, schedule: Q04DX002 (ip), vehicle: saline with Tween-80
smiles,measurement,setting,value
COC(=O)C(=O)CC(=O)c1ccccc1,T/C,[1],116 % of control
same,T/C,[2],106 % of control
same,T/C,[3],118 % of control
CC(=O)Nc1cccc2ccc([N+](=O)[O-])cc12,T/C,[4],96 % of control
same,T/C,[5],94 % of control
same,T/C,[6],98 % of control
same,T/C,[7],105 % of control
same,T/C,[8],98 % of control
same,T/C,[9],98 % of control
N#CSCc1ccccc1Cl,T/C,"dose: 6.25 mg/kg/injection, schedule: Q04DX003 (ip), vehicle: Klucel (hydroxypropylcellulose) (HPC)",104 % of control
same,T/C,"dose: 12.5 mg/kg/injection, schedule: Q04DX003 (ip), vehicle: Klucel (hydroxypropylcellulose) (HPC)",104 % of control
same,T/C,"dose: 25.0 mg/kg/injection, schedule: Q04DX003 (ip), vehicle: Klucel (hydroxypropylcellulose) (HPC)",93 % of control
same,T/C,"dose: 50.0 mg/kg/injection, schedule: Q04DX003 (ip), vehicle: Klucel (hydroxypropylcellulose) (HPC)",96 % of control
Cc1cc2nc(-c3cc4cc(Cl)cc(Cl)c4oc3=O)[nH]c2cc1C,T/C,[1],108 % of control
same,T/C,[2],104 % of control
same,T/C,[3],115 % of control
COc1cc2ccc(Cc3nccc4cc(OC)c(OC)cc34)cc2cc1OC,T/C,[4],91 % of control
same,T/C,[5],100 % of control
same,T/C,[6],106 % of control
same,T/C,[7],92 % of control
same,T/C,[8],101 % of control
same,T/C,[9],92 % of control
CCOC(=O)C(OCC)c1ccccc1 (configuration not stated),T/C,"dose: 100.0 mg/kg/injection, schedule: Q04DX003 (ip), vehicle: saline",97 % of control
same,T/C,"dose: 200.0 mg/kg/injection, schedule: Q04DX003 (ip), vehicle: saline",101 % of control
same,T/C,"dose: 400.0 mg/kg/injection, schedule: Q04DX003 (ip), vehicle: saline",89 % of control
COc1cc(OC)c2c(=O)c3ccoc3n(C)c2c1OC,T/C,[10],98 % of control
same,T/C,[11],98 % of control
same,T/C,[12],93 % of control
same,T/C,[13],93 % of control
COc1ccc([N+](=O)[O-])cc1NC(=O)c1cccc(Cl)c1,T/C,[4],114 % of control
same,T/C,[6],98 % of control
same,T/C,[8],102 % of control
CN(C)S(=O)(=O)c1ccc2c(c1)N(CCCN1CCN(S(C)(=O)=O)CC1)c1ccccc1S2,T/C,"dose: 25.0 mg/kg/injection, schedule: Q01DX009 (ip), vehicle: saline",95 % of control
same,T/C,"dose: 50.0 mg/kg/injection, schedule: Q01DX009 (ip), vehicle: saline",101 % of control
same,T/C,[14],91 % of control
same,T/C,[15],98 % of control
same,T/C,"dose: 400.0 mg/kg/injection, schedule: Q01DX009 (ip), vehicle: saline",106 % of control
COc1ccccc1C1N(C)CCCN1C,T/C,"dose: 6.25 mg/kg/injection, schedule: Q04DX003 (ip), vehicle: saline",96 % of control
same,T/C,"dose: 12.5 mg/kg/injection, schedule: Q04DX003 (ip), vehicle: saline",92 % of control
same,T/C,"dose: 25.0 mg/kg/injection, schedule: Q04DX003 (ip), vehicle: saline",101 % of control
O=C(c1ccco1)c1cc(Cl)c(Cl)cc1Cl,T/C,[16],100 % of control
same,T/C,[17],95 % of control
same,T/C,[18],98 % of control
CC(=O)OCC1OC(OC(C)=O)C(OC(C)=O)C1OC(C)=O (configuration not stated),T/C,[19],107 % of control
same,T/C,[20],106 % of control
same,T/C,[21],102 % of control
CN(Cc1cnc2nc(N)cc(N)c2n1)c1ccc(C(=O)NC(CCC(=O)O)C(=O)O)cc1 (configuration not stated),T/C,"dose: 0.5 mg/kg/injection, schedule: Q01DX009 (ip), vehicle: other",102 % of control
same,T/C,"dose: 1.0 mg/kg/injection, schedule: Q01DX009 (ip), vehicle: other",100 % of control
same,T/C,"dose: 2.0 mg/kg/injection, schedule: Q01DX009 (ip), vehicle: other",112 % of control
same,T/C,"dose: 4.0 mg/kg/injection, schedule: Q01DX009 (ip), vehicle: other",105 % of control
same,T/C,"dose: 8.0 mg/kg/injection, schedule: Q01DX009 (ip), vehicle: other",117 % of control
same,T/C,"dose: 50.0 mg/kg/injection, schedule: Q01DX009 (ip), vehicle: other",154 % of control
same,T/C,"dose: 100.0 mg/kg/injection, schedule: Q01DX009 (ip), vehicle: other",164 % of control
Nc1ncnc2c1nnn2CCCCCC(=O)O,T/C,[22],100 % of control
same,T/C,[23],101 % of control
same,T/C,[24],97 % of control
CCC(=O)OCCOc1ccc(C(C)(C)C)cc1,T/C,"dose: 50.0 mg/kg/injection, schedule: Q04DX002 (ip), vehicle: saline",98 % of control
same,T/C,[14],98 % of control
same,T/C,"dose: 100.0 mg/kg/injection, schedule: Q04DX002 (ip), vehicle: saline",94 % of control
same,T/C,[15],103 % of control
same,T/C,"dose: 200.0 mg/kg/injection, schedule: Q04DX002 (ip), vehicle: saline",91 % of control
O=C(NC/C(Br)=C/Br)Nc1cccc2ccccc12,T/C,[25],97 % of control
same,T/C,[26],90 % of control
same,T/C,[27],97 % of control
CCOC(=O)c1c(-c2cc(OC)c(OC)c(OC)c2)csc1NC(=O)c1ccccc1,T/C,"dose: 50.0 mg/kg/injection, schedule: Q04DX003 (ip), vehicle: saline with Tween-80",89 % of control
same,T/C,[22],105 % of control
same,T/C,[23],90 % of control
same,T/C,[24],90 % of control
COc1cc(/C=N/NC(=O)C(=O)N/N=C/c2cc(OC)c(OC)c(OC)c2)cc(OC)c1OC,T/C,"dose: 75.0 mg/kg/injection, schedule: Q01DX001 (ip), vehicle: other",94 % of control
same,T/C,"dose: 150.0 mg/kg/injection, schedule: Q01DX001 (ip), vehicle: other",90 % of control
same,T/C,"dose: 300.0 mg/kg/injection, schedule: Q01DX001 (ip), vehicle: other",89 % of control
N=C(N)CCN,T/C,[19],98 % of control
same,T/C,[20],102 % of control
C[Si](C)(CCCC(N)C(=O)O)O[Si](C)(C)CCCC(N)C(=O)O (configuration not stated),T/C,[5],98 % of control
same,T/C,[7],100 % of control
same,T/C,[9],98 % of control
CC(c1ccccc1)C1CCCCC1 (configuration not stated),T/C,[16],96 % of control
same,T/C,[17],96 % of control
same,T/C,[18],91 % of control
CC1(C)CCC2=C(O1)C(=O)c1ccccc1C2=O,T/C,[16],102 % of control
same,T/C,[17],104 % of control
same,T/C,[18],94 % of control
CCC(CC)C[N+](C)(C)C,T/C,"dose: 75.0 mg/kg/injection, schedule: Q01DX001 (ip), vehicle: saline",95 % of control
same,T/C,"dose: 150.0 mg/kg/injection, schedule: Q01DX001 (ip), vehicle: saline",104 % of control
c1ccc(-c2c3ccccc3c(-c3ccccc3)c3cc4ccccc4cc23)cc1,T/C,[1],95 % of control
same,T/C,[2],98 % of control
same,T/C,[3],92 % of control
COc1ccc(C)cc1NC(=O)Nc1cc(Cl)ccc1C,T/C,[16],93 % of control
same,T/C,"dose: 100.0 mg/kg/injection, schedule: Q01DX009 (ip), vehicle: saline with Tween-80",95 % of control and 112 % of control
same,T/C,[25],102 % of control and 87 % of control
same,T/C,[22],90 % of control
same,T/C,[17],93 % of control
same,T/C,"dose: 200.0 mg/kg/injection, schedule: Q01DX009 (ip), vehicle: saline with Tween-80",102 % of control and 88 % of control
same,T/C,[26],87 % of control
same,T/C,[23],101 % of control
same,T/C,"dose: 400.0 mg/kg/injection, schedule: Q01DX009 (ip), vehicle: saline with Tween-80",93 % of control and 91 % of control
same,T/C,[27],95 % of control and 87 % of control
same,T/C,[24],94 % of control
S=c1nc[nH]c2c1ncn2CCCc1ccccc1,T/C,[10],106 % of control
same,T/C,[11],98 % of control
same,T/C,[12],98 % of control
same,T/C,[13],95 % of control
Brc1ccc(S/C=C/c2ccccc2)cc1,T/C,[19],112 % of control
same,T/C,[20],102 % of control
same,T/C,[21],101 % of control
O=C(O)c1cncc(-c2ccccc2)c1,T/C,[25],104 % of control
same,T/C,[26],111 % of control
NC(=O)CC(NC(=O)OCc1ccccc1)C(N)=O (configuration not stated),T/C,[5],93 % of control
same,T/C,[7],87 % of control
same,T/C,[9],90 % of control
CCN(CC)c1cccc(O)c1,T/C,[22],90 % of control
same,T/C,[23],95 % of control
